Laboratory results published in ChEMBL document CHEMBL5506003, “Design and biological evaluation of dual tubulin/HDAC inhibitors based on millepachine for treatment of prostate cancer” (Eur J Med Chem, 2024).

What was measured:
A549 = test: Cytotoxicity against human A549 cells incubated for 72 hrs by MTT assay; conditions: A549, 72 h
MCF7 = test: Cytotoxicity against human MCF7 cells incubated for 72 hrs by MTT assay; conditions: MCF7, 72 h
MDA-MB-231 = test: Cytotoxicity against human MDA-MB-231 cells incubated for 72 hrs by MTT assay; assay type: functional, cell-based; conditions: MDA-MB-231, 72 h
PC-3 = test: Cytotoxicity against human PC-3 cells incubated for 72 hrs by MTT assay; conditions: PC-3, 72 h
U-251 = test: Cytotoxicity against human U-251 cells incubated for 72 hrs by MTT assay; conditions: U-251, 72 h

SMILES	IC50 (A549) [µM]	IC50 (MCF7) [µM]	IC50 (MDA-MB-231) [µM]	IC50 (PC-3) [µM]	IC50 (U-251) [µM]
COc1ccc(/C=C/C(=O)c2ccc(Br)c3c2OC(C)(C)C=C3)cc1OCC(=O)Nc1ccccc1N	8.2	6.11	4.75	3.75	6.68
COc1ccc(/C=C/C(=O)c2ccc(OC)c3c2OC(C)(C)C=C3)cc1OCCCCCC(=O)Nc1ccccc1N	> 10	> 10	> 10	5.86	> 10
COc1ccc(/C=C/C(=O)c2ccc(OC)c3c2OC(C)(C)C=C3)cc1OCCCCC(=O)NO	7.13	> 10	4.69	4.84	> 10
COc1ccc(/C=C/C(=O)c2ccc(OC)c3c2OC(C)(C)C=C3)cc1OCCCCCCC(=O)NO	> 10	10	> 10	> 10	> 10
COc1ccc(/C=C/C(=O)c2ccc(OC)c3c2OC(C)(C)C=C3)cc1NCCCCCCC(=O)NO	> 10	> 10	> 10	7.23	> 10
COc1ccc(/C=C/C(=O)c2ccc(OC)c3c2OC(C)(C)C=C3)cc1OCC(=O)NO	2.93	0.59	1.71	0.23	0.48
COc1ccc(/C=C/C(=O)c2ccc(Br)c3c2OC(C)(C)C=C3)cc1NCC(=O)Nc1ccccc1N	> 10	4.06	4.05	1.23	3.66
COc1ccc(/C=C/C(=O)c2ccc(OC)c3c2OC(C)(C)C=C3)cc1OCCCCCCC(=O)Nc1ccccc1N	> 10	> 10	3.89	> 10	> 10
COc1ccc(/C=C/C(=O)c2ccc(Cl)c3c2OC(C)(C)C=C3)cc1NCC(=O)NO	1.67	0.48	0.5	0.052	0.25
COc1ccc(/C=C/C(=O)c2ccc(OC)c3c2OC(C)(C)C=C3)cc1NCCCCCC(=O)NO	> 10	> 10	> 10	> 10	> 10
COc1ccc(/C=C/C(=O)c2ccc(Cl)c3c2OC(C)(C)C=C3)cc1OCC(=O)NO	2.56	1.45	0.5	0.22	1.76
COc1ccc(/C=C/C(=O)c2ccc(OC)c3c2OC(C)(C)C=C3)cc1NCC(=O)Nc1ccccc1N	9.78	4.33	4.97	3.1	4.19
